Values joined by “and” are separate entries in the source; they are usually repeats but may differ in a detail not shown here. Equal entries are not always repeated. Inconclusive results and toxic doses are left out.
Tested on: L1210 leukemia ip in BDF1 mice, survival T/C
Assay: NCI In Vivo Anticancer Drug Screen. Data for tumor model L1210 Leukemia (intraperitoneal) in B6D2F1 (BDF1) mice
Details: higher = longer survival
In short: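 Mice bearing the transplanted tumor received compound or vehicle. Survival of the treated group was divided by that of the vehicle-treated control group to give the ratio.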

[1] = endpoint: mean survival time, dose: 100.0 mg/kg/injection, schedule: Q04DX002 (ip), vehicle: Klucel (hydroxypropylcellulose) (HPC)
[2] = endpoint: mean survival time, dose: 200.0 mg/kg/injection, schedule: Q04DX002 (ip), vehicle: Klucel (hydroxypropylcellulose) (HPC)
[3] = endpoint: mean survival time, dose: 400.0 mg/kg/injection, schedule: Q04DX002 (ip), vehicle: Klucel (hydroxypropylcellulose) (HPC)

Structure (SMILES): COc1cc2c[n+](C)c3c4cc5c(cc4ccc3c2cc1OC)OCO5
- T/C (endpoint: mean survival time, dose: 1.0 mg/kg/injection, schedule: Q01DX009 (ip), vehicle: saline): 109 % of control and 120 % of control
- T/C (endpoint: mean survival time, dose: 10.0 mg/kg/injection, schedule: Q01DX009 (ip), vehicle: saline): 118 % of control
- T/C (endpoint: mean survival time, dose: 40.0 mg/kg/injection, schedule: Q01DX009 (ip), vehicle: saline): 121 % of control
- T/C (endpoint: mean survival time, dose: 64.0 mg/kg/injection, schedule: Q01DX009 (ip), vehicle: saline): 117 % of control and 121 % of control
- T/C (endpoint: mean survival time, dose: 80.0 mg/kg/injection, schedule: Q04DX003 (ip), vehicle: saline): 150 % of control
- T/C [1]: 111 % of control
- T/C [2]: 111 % of control
- T/C [3]: 107 % of control
- T/C (endpoint: median survival time, dose: 1.0 mg/kg/injection, schedule: Q03HX024 (ip), vehicle: saline): 114 % of control
- T/C (endpoint: median survival time, dose: 2.0 mg/kg/injection, schedule: Q03HX016 (ip), vehicle: saline): 124 % of control
- T/C (endpoint: median survival time, dose: 4.0 mg/kg/injection, schedule: Q03HX008 (ip), vehicle: saline): 121 % of control
- T/C (endpoint: median survival time, dose: 4.0 mg/kg/injection, schedule: Q03HX016 (ip), vehicle: saline): 119 % of control
- T/C (endpoint: median survival time, dose: 8.0 mg/kg/injection, schedule: Q04DX003 (ip), vehicle: saline): 103 % of control
- T/C (endpoint: median survival time, dose: 8.0 mg/kg/injection, schedule: Q08DX002 (ip), vehicle: saline): 105 % of control
- T/C (endpoint: median survival time, dose: 16.0 mg/kg/injection, schedule: Q01DX009 (oral), vehicle: saline): 105 % of control
- T/C (endpoint: median survival time, dose: 16.0 mg/kg/injection, schedule: Q03HX008 (ip), vehicle: saline): 121 % of control
- T/C (endpoint: median survival time, dose: 16.0 mg/kg/injection, schedule: Q04DX003 (ip), vehicle: saline): 101 % of control
- T/C (endpoint: median survival time, dose: 16.0 mg/kg/injection, schedule: Q08DX002 (ip), vehicle: saline): 103 % of control
- T/C (endpoint: median survival time, dose: 32.0 mg/kg/injection, schedule: Q01DX001 (ip), vehicle: saline): 121 % of control
- T/C (endpoint: median survival time, dose: 32.0 mg/kg/injection, schedule: Q01DX009 (oral), vehicle: saline): 109 % of control
- T/C (endpoint: median survival time, dose: 32.0 mg/kg/injection, schedule: Q04DX003 (ip), vehicle: saline): 101 % of control
- T/C (endpoint: median survival time, dose: 64.0 mg/kg/injection, schedule: Q01DX001 (ip), vehicle: saline): 112 % of control
- T/C (endpoint: median survival time, dose: 64.0 mg/kg/injection, schedule: Q01DX009 (ip), vehicle: saline): 112 % of control
- T/C (endpoint: median survival time, dose: 64.0 mg/kg/injection, schedule: Q01DX009 (oral), vehicle: saline): 103 % of control
- T/C (endpoint: median survival time, dose: 64.0 mg/kg/injection, schedule: Q04DX003 (ip), vehicle: saline): 101 % of control
- T/C (endpoint: median survival time, dose: 128.0 mg/kg/injection, schedule: Q01DX001 (ip), vehicle: saline): 121 % of control
- T/C (endpoint: median survival time, dose: 128.0 mg/kg/injection, schedule: Q01DX009 (oral), vehicle: saline): 102 % of control
- T/C (endpoint: median survival time, dose: 128.0 mg/kg/injection, schedule: Q04DX003 (ip), vehicle: saline): 87 % of control
- T/C (endpoint: median survival time, dose: 128.0 mg/kg/injection, schedule: Q08DX002 (ip), vehicle: saline): 101 % of control
- T/C (endpoint: median survival time, dose: 256.0 mg/kg/injection, schedule: Q01DX009 (oral), vehicle: saline): 100 % of control
- T/C (endpoint: median survival time, dose: 512.0 mg/kg/injection, schedule: Q01DX009 (oral), vehicle: saline): 105 % of control

Structure (SMILES): Cc1cc(Oc2nc(Cl)nc(C(Cl)(Cl)Cl)c2Cl)cc(C)c1N(C)C (tested in a mixture with another compound)
- T/C (endpoint: mean survival time, dose: 100.0 mg/kg/injection, schedule: Q04DX003 (ip), vehicle: Klucel (hydroxypropylcellulose) (HPC)): 91 % of control
- T/C (endpoint: mean survival time, dose: 200.0 mg/kg/injection, schedule: Q04DX003 (ip), vehicle: Klucel (hydroxypropylcellulose) (HPC)): 105 % of control

Structure (SMILES): O=C(Cc1ccccc1)Nc1ccc(Cl)c(Cl)c1
- T/C [1]: 100 % of control
- T/C [2]: 100 % of control
- T/C [3]: 96 % of control

Structure (SMILES): CC(=O)Oc1ccc(OC(C)=O)c2c1C(=O)c1ccccc1C2=O
- T/C (endpoint: mean survival time, dose: 50.0 mg/kg/injection, schedule: Q01DX001 (ip), vehicle: carboxymethylcellulose (CMC)): 104 % of control
- T/C (endpoint: mean survival time, dose: 100.0 mg/kg/injection, schedule: Q01DX001 (ip), vehicle: carboxymethylcellulose (CMC)): 110 % of control
- T/C (endpoint: mean survival time, dose: 200.0 mg/kg/injection, schedule: Q01DX001 (ip), vehicle: carboxymethylcellulose (CMC)): 102 % of control
- T/C (endpoint: mean survival time, dose: 400.0 mg/kg/injection, schedule: Q01DX001 (ip), vehicle: carboxymethylcellulose (CMC)): 110 % of control

Structure (SMILES): CC(=O)OC(OC(C)=O)c1ccccc1
- T/C [1]: 106 % of control
- T/C [2]: 110 % of control
- T/C [3]: 103 % of control
